Laboratory results as given in patent US20240158348A1, “HERBICIDAL CYCLIC AMIDES N-SUBSTITUTED WITH A HALOALKYLSULFONYLANILIDE GROUP” (FMC Corporation, priority 2021, published 2024).

Experiments:
[1] = tested on: barnyardgrass (Echinochloa crusgalli); assay: Test D flooded paddy test, barnyardgrass; assay type: in vivo; design: key: 0 = no effect, 100 = complete control; conditions: 250 g ai/ha, Flood; applied to paddy water at 2-leaf stage; visual rating after 13 days; scale 0 (no effect) to 100 (complete control)
Experimental: (§1) Plant species in the flooded paddy test selected from barnyardgrass (Echinochloa crusgalli), ducksalad (Heteranthera limosa), rice (Oryza sativa), and sedge, umbrella (small-flower umbrella sedge, Cyperus difformis) were grown to the 2-leaf stage for testing. At time of treatment, test pots were flooded to 3 cm above the soil surface, treated by application of test compounds directly to the paddy water, and then maintained at that water depth for the duration of the test. Treated plants and controls were maintained in a greenhouse for 13 days, after which time all species were compared to controls and visually evaluated. Plant response ratings, summarized in Table B, are based on a scale of 0 to 100 where 0 is no effect and 100 is complete control. A dash (-) response means no test result.

[2] = tested on: ryegrass, Italian (Italian ryegrass, Lolium multiflorum); assay: Test C preemergence, Italian ryegrass; assay type: in vivo; conditions: 0 is no effect, 100 is complete control
Text: (§2) Seeds of plant species selected from blackgrass (Alopecurus myosuroides), corn (Zea mays), foxtail, giant (giant foxtail, Setaria faberi), goosegrass (Eleusine indica), kochia (Bassia scoparia), oat, wild (wild oat, Avena fatua), pigweed, palmer (palmer amaranth, Amaranthus palmeri), ragweed (common ragweed, Ambrosia artemisiifolia), ryegrass, Italian (Italian ryegrass, Lolium multiflorum), soybean (Glycine max) and wheat (Triticum aestivum) were planted into a blend of loam soil and sand and treated preemergence with a directed soil spray using test chemicals formulated in a non-phytotoxic solvent mixture which included a surfactant.
(§3) At the same time, plants selected from these crop and weed species and also galium (catchweed bedstraw, Galium aparine) and horseweed (Erigeron canadensis) were planted in pots containing the same blend of loam soil and sand and treated with postemergence applications of test chemicals formulated in the same manner. Plants ranged in height from 2 to 10 cm and were in the one- to two-leaf stage for the postemergence treatment. Treated plants and untreated controls were maintained in a greenhouse for 10 or 12 days, after which time all treated plants were compared to untreated controls and visually evaluated for injury. Plant response ratings, summarized in Table A, are based on a 0 to 100 scale where 0 is no effect and 100 is complete control. A dash (-) response means no test result.

[3] = tested on: sedge, umbrella (small-flower umbrella sedge, Cyperus difformis); assay: Test D flooded paddy test, umbrella sedge; assay type: in vivo; design: key: 0 = no effect, 100 = complete control; conditions: 250 g ai/ha, Flood; applied to paddy water at 2-leaf stage; visual rating after 13 days; scale 0 (no effect) to 100 (complete control)
Experimental: as §1

[4] = tested on: oat, wild (wild oat, Avena fatua); assay: Test C postemergence, wild oat; assay type: in vivo
Text: as §2, §3

[5] = tested on: kochia (Bassia scoparia); assay: Test C postemergence, kochia; assay type: in vivo
Text: as §2, §3

[6] = tested on: kochia (Bassia scoparia); assay: Test C preemergence, kochia; assay type: in vivo; conditions: 0 is no effect, 100 is complete control
Text: as §2, §3

[7] = tested on: soybean (Glycine max); assay: Test C postemergence, soybean; assay type: in vivo
Text: as §2, §3

[8] = tested on: wheat (Triticum aestivum); assay: Test C postemergence, wheat; assay type: in vivo
Text: as §2, §3

[9] = tested on: pigweed, palmer (palmer amaranth, Amaranthus palmeri); assay: Test C preemergence, palmer amaranth; assay type: in vivo; conditions: 0 is no effect, 100 is complete control
Text: as §2, §3

[10] = tested on: foxtail, giant (giant foxtail, Setaria faberi); assay: Test C preemergence, giant foxtail; assay type: in vivo; conditions: 0 is no effect, 100 is complete control
Text: as §2, §3

[11] = tested on: corn (Zea mays); assay: Test C preemergence, corn; assay type: in vivo; conditions: 0 is no effect, 100 is complete control
Text: as §2, §3

[12] = tested on: rice (Oryza sativa); assay: Test D flooded paddy test, rice; assay type: in vivo; design: key: 0 = no effect, 100 = complete control; conditions: 250 g ai/ha, Flood; applied to paddy water at 2-leaf stage; visual rating after 13 days; scale 0 (no effect) to 100 (complete control)
Experimental: as §1

[13] = tested on: ragweed (common ragweed, Ambrosia artemisiifolia); assay: Test C postemergence, ragweed; assay type: in vivo
Text: as §2, §3

[14] = tested on: ragweed (common ragweed, Ambrosia artemisiifolia); assay: Test C preemergence, ragweed; assay type: in vivo; conditions: 0 is no effect, 100 is complete control
Text: as §2, §3

[15] = tested on: goosegrass (Eleusine indica); assay: Test C preemergence, goosegrass; assay type: in vivo; conditions: 0 is no effect, 100 is complete control
Text: as §2, §3

[16] = tested on: wheat (Triticum aestivum); assay: Test C preemergence, wheat; assay type: in vivo; conditions: 0 is no effect, 100 is complete control
Text: as §2, §3

[17] = tested on: foxtail, giant (giant foxtail, Setaria faberi); assay: Test C postemergence, giant foxtail; assay type: in vivo
Text: as §2, §3

[18] = tested on: pigweed, palmer (palmer amaranth, Amaranthus palmeri); assay: Test C postemergence, palmer amaranth; assay type: in vivo
Text: as §2, §3

[19] = tested on: galium (catchweed bedstraw, Galium aparine); assay: Test C postemergence, galium; assay type: in vivo
Text: as §2, §3

[20] = tested on: ryegrass, Italian (Italian ryegrass, Lolium multiflorum); assay: Test C postemergence, Italian ryegrass; assay type: in vivo
Text: as §2, §3

[21] = tested on: goosegrass (Eleusine indica); assay: Test C postemergence, goosegrass; assay type: in vivo
Text: as §2, §3

[22] = tested on: horseweed (Erigeron canadensis); assay: Test C postemergence, horseweed; assay type: in vivo
Text: as §2, §3

[23] = tested on: corn (Zea mays); assay: Test C postemergence, corn; assay type: in vivo
Text: as §2, §3

[24] = tested on: blackgrass (Alopecurus myosuroides); assay: Test C postemergence, blackgrass; assay type: in vivo; conditions: 31 g ai/ha Postemergence; visual injury, 0 to 100 scale (0 no effect, 100 complete control)
Text: as §2, §3

[25] = tested on: ducksalad (Heteranthera limosa); assay: Test D flooded paddy test, ducksalad; assay type: in vivo; design: key: 0 = no effect, 100 = complete control; conditions: 250 g ai/ha, Flood; applied to paddy water at 2-leaf stage; visual rating after 13 days; scale 0 (no effect) to 100 (complete control)
Experimental: as §1

[26] = tested on: blackgrass (Alopecurus myosuroides); assay: Test C postemergence, blackgrass; assay type: in vivo; conditions: 125 g ai/ha Postemergence; 0 is no effect, 100 is complete control
[27] = tested on: oat, wild (wild oat, Avena fatua); assay: Test C preemergence, wild oat; assay type: in vivo; conditions: 0 is no effect, 100 is complete control
Text: as §2, §3

[28] = tested on: soybean (Glycine max); assay: Test C preemergence, soybean; assay type: in vivo; conditions: 0 is no effect, 100 is complete control
Text: as §2, §3

[29] = 31 g ai/ha Postemergence, visual injury, 0 to 100 scale (0 no effect, 100 complete control)
[30] = 125 g ai/ha Postemergence, 0 is no effect, 100 is complete control

CO/N=C1\CCN(c2cc(NS(=O)(=O)C(F)(F)F)c(C)cc2C)C1=O [Compound 9, 1,1,1-trifluoro-N-[5-[3-(methoxyimino)-2-oxo-1-pyrrolidinyl]-2,4-dimethylphenyl]methanesulfonamide]
Plant response rating, Barnyardgrass [1]: 10
Plant response rating (0 to 100 scale), Ryegrass, Italian ([2]; 31 g ai/ha Preemergence): 60
Plant response rating (0 to 100 scale), Ryegrass, Italian ([2]; 125 g ai/ha Preemergence): 100
Plant response rating, Sedge, Umbrella [3]: 85
Oat, Wild plant response rating [4, 29]: 80
Plant response rating (0 to 100 scale), Oat, Wild [4, 30]: 80
Kochia plant response rating [5, 29]: 80
Plant response rating (0 to 100 scale), Kochia [5, 30]: 90
Plant response rating (0 to 100 scale), Kochia ([6]; 31 g ai/ha Preemergence): 100
Plant response rating (0 to 100 scale), Kochia ([6]; 125 g ai/ha Preemergence): 100
Soybean plant response rating [7, 29]: 80
Plant response rating (0 to 100 scale), Soybean [7, 30]: 80
Wheat plant response rating [8, 29]: 80
Plant response rating (0 to 100 scale), Wheat [8, 30]: 80
Plant response rating (0 to 100 scale), Pigweed, Palmer ([9]; 31 g ai/ha Preemergence): 100
Plant response rating (0 to 100 scale), Pigweed, Palmer ([9]; 125 g ai/ha Preemergence): 100
Plant response rating (0 to 100 scale), Foxtail, Giant ([10]; 31 g ai/ha Preemergence): 100
Plant response rating (0 to 100 scale), Foxtail, Giant ([10]; 125 g ai/ha Preemergence): 100
Plant response rating (0 to 100 scale), Corn ([11]; 31 g ai/ha Preemergence): 50
Plant response rating (0 to 100 scale), Corn ([11]; 125 g ai/ha Preemergence): 100
Plant response rating, Rice [12]: 30
Ragweed plant response rating [13, 29]: 70
Plant response rating (0 to 100 scale), Ragweed [13, 30]: 80
melting point: 226 to 229 °C
Plant response rating (0 to 100 scale), Ragweed ([14]; 31 g ai/ha Preemergence): 50
Plant response rating (0 to 100 scale), Ragweed ([14]; 125 g ai/ha Preemergence): 90
Plant response rating (0 to 100 scale), Goosegrass ([15]; 31 g ai/ha Preemergence): 100
Plant response rating (0 to 100 scale), Goosegrass ([15]; 125 g ai/ha Preemergence): 100
Plant response rating (0 to 100 scale), Wheat ([16]; 31 g ai/ha Preemergence): 90
Plant response rating (0 to 100 scale), Wheat ([16]; 125 g ai/ha Preemergence): 100
Foxtail, Giant plant response rating [17, 29]: 40
Plant response rating (0 to 100 scale), Foxtail, Giant [17, 30]: 90
Pigweed, Palmer plant response rating [18, 29]: 70
Plant response rating (0 to 100 scale), Pigweed, Palmer [18, 30]: 90
Galium plant response rating [19, 29]: 90
Plant response rating (0 to 100 scale), Galium [19, 30]: 100
Ryegrass, Italian plant response rating [20, 29]: 50
Plant response rating (0 to 100 scale), Ryegrass, Italian [20, 30]: 80
Goosegrass plant response rating [21, 29]: 90
Plant response rating (0 to 100 scale), Goosegrass [21, 30]: 90
Horseweed plant response rating [22, 29]: 100
Plant response rating (0 to 100 scale), Horseweed [22, 30]: 100
Corn plant response rating [23, 29]: 90
Plant response rating (0 to 100 scale), Corn [23, 30]: 90
Blackgrass plant response rating [24]: 80
Plant response rating, Ducksalad [25]: 95
Plant response rating (0 to 100 scale), Blackgrass [26]: 90
Plant response rating (0 to 100 scale), Oat, Wild ([27]; 31 g ai/ha Preemergence): 90
Plant response rating (0 to 100 scale), Oat, Wild ([27]; 125 g ai/ha Preemergence): 100
Plant response rating (0 to 100 scale), Soybean ([28]; 31 g ai/ha Preemergence): 80
Plant response rating (0 to 100 scale), Soybean ([28]; 125 g ai/ha Preemergence): 100
